# Laboratory results published in patent US9656962B2, “Ring-contracted morphinans and the use thereof” (Purdue Pharma L.P., priority 2013, dated 2017).
# How the values were obtained:
# μ-opioid receptor = μ-opioid receptor (Homo sapiens (Human), UniProt P35372); assay: μ-opioid receptor [35S]GTPγS functional assay, U-2 OS cells (Table 5); type: biochemical; details: for Emax: relative to DAMGO; for EC50: μ GTP
# Method: μ-Opioid Receptor Functional Assay Procedures: [^35S]GTPγS functional assays were conducted using freshly thawed μ-receptor membranes prepared in-house from a cell line expressing recombinant μ opioid receptor in a HEK-293, CHO or U-2 OS cell background, or purchased from a commercial source (Perkin Elmer, Shelton, Conn.; or DiscovRx, Fremont, Calif.). Assay reactions were prepared by sequentially adding the following reagents to binding buffer (100 mM NaCl, 10 mM MgCl2, 20 mM HEPES, pH 7.4) on ice (final concentrations indicated): membrane protein (0.026 mg/mL), saponin ([…]), GDP ([…]) and [^35S]GTPγS (0.20 nM; Perkin Elmer, Shelton, Conn.). The prepared membrane solution (190 μl/well) was transferred to 96-shallow well polypropylene plates containing 10 μl of 20× concentrated stock solutions of the agonist [D-Ala^2, N-methyl-Phe^4 Gly-ol^5]-enkephalin (DAMGO) prepared in dimethyl sulfoxide (DMSO). Plates were incubated for 30 min at about 25° C. with shaking Reactions were terminated by rapid filtration onto 96-well Unifilter GF/B filter plates (Perkin Elmer, Shelton, Conn.) using a 96-well tissue harvester (Perkin Elmer, Shelton, Conn.) followed by three filtration washes with 200 μl of ice-cold wash buffer (10 mM NaH2PO4, 10 mM Na2HPO4, pH 7.4). Filter plates were subsequently dried at 50° C. for 2-3 hours. BetaScint scintillation cocktail (Perkin Elmer, Shelton, Conn.) was added (50 μl/well) and plates were counted using a Packard Top-Count for 1 min/well. Data were analyzed using the sigmoidal dose-response curve fitting functions in GraphPad PRISM v. 3.0, or an in-house function for non-linear, sigmoidal dose-response curve-fitting. [^35S]GTPγS functional assays can also be conducted using freshly thawed μ-receptor membranes prepared from a cell line expressing recombinant μ opioid receptor in a CHO-K1 cell background.
# μ GTP Emax (%) is the maximal effect elicited by a compound relative to the effect elicited by DAMGO, a standard μ agonist.
# κ-opioid receptor = κ-opioid receptor (Homo sapiens (Human), UniProt P41145); assay: κ-opioid receptor [35S]GTPγS functional assay, U-2 OS cells (Table 5); type: biochemical; details: for Emax: relative to U69,593; for EC50: κ GTP
# Method: κ-Opioid Receptor Functional Assay Procedures: Functional [^35S]GTPγS binding assays were conducted as follows. κ opioid receptor membrane solution was prepared by sequentially adding final concentrations of 0.026 μg/μl κ membrane protein (in-house), 10 μg/mL saponin, 3 μM GDP and 0.20 nM [^35S]GTPγS to binding buffer (100 mM NaCl, 10 mM MgCl2, 20 mM HEPES, pH 7.4) on ice. The prepared membrane solution (190 μl/well) was transferred to 96-shallow well polypropylene plates containing 10 μl of 20× concentrated stock solutions of agonist prepared in DMSO. Plates were incubated for 30 min at a temperature of about 25° C. with shaking. Reactions were terminated by rapid filtration onto 96-well Unifilter GF/B filter plates (Perkin Elmer, Shelton, Conn.) using a 96-well tissue harvester (Packard) and followed by three filtration washes with 200 μl ice-cold binding buffer (10 mM NaH2PO4, 10 mM Na2HPO4, pH 7.4). Filter plates were subsequently dried at 50° C. for 2-3 hours. Fifty μl/well scintillation cocktail (Perkin Elmer, Shelton, Conn.) was added and plates were counted in a Packard Top-Count for 1 min/well.
# κ GTP Emax (%) is the maximal effect elicited by a compound relative to the effect elicited by U69,593.
# The following TABLE 5 provides results on the activity response of certain Compounds of the Invention at the μ- and κ-opioid receptors determined as described above using U-2 OS cells.
smiles,measurement,setting,value
"COc1ccc2c(c1)[C@]13CCN(CC4CC4)[C@H](C2)[C@]1(O)C[C@@H](C(=O)N1CCCC1)C3 [Compound 20, ((2S,3aS,4R,9bS)-12-(cyclopropylmethyl)-3a-hydroxy-8-methoxy-1,2,3,3a,4,5-hexahydro-4,9b-(epiminoethano)cyclo-penta[a]naphthalene-2-yl)(pyrrolidin-1-yl)methanone]",Emax,μ-opioid receptor,43.3 ± 2.4%
same,EC50,μ-opioid receptor,1.23 ± 0.0835 µM
same,Emax,κ-opioid receptor,87.7 ± 4.33%
same,EC50,κ-opioid receptor,4400 ± 357 nM
"N[C@H]1CC23CCN(CC4CC4)[C@H](Cc4ccc(O)cc42)[C@]3(O)C1 (stereo in doubt) [Compound 29, (2S,3aS,4R,9bS)-2-amino-12-(cyclopropylmethyl)-1,2,3,3a,4,5-hexahydro-4,9b-(epiminoethano)-cyclopenta[a]naphthalene-3a,8-diol]",Emax,μ-opioid receptor,22 ± 1.73%
same,EC50,μ-opioid receptor,0.00778 ± 0.00163 µM
same,Emax,κ-opioid receptor,107 ± 3.18%
same,EC50,κ-opioid receptor,0.62 ± 0.04 nM
"COc1ccc2c(c1)[C@]13CCN(CC4CC4)[C@H](C2)[C@]1(O)C[C@@H](C#N)C3 [Compound 26, (2S,3aS,4R,9bS)-12-(cyclopropylmethyl)-3a-hydroxy-8-methoxy-1,2,3,3a,4,5-hexahydro-4,9b-(epiminoethano)-cyclopenta[a]naphthalene-2-carbonitrile]",Emax,μ-opioid receptor,63 ± 5.77%
same,EC50,μ-opioid receptor,1.13 ± 0.117 µM
same,Emax,κ-opioid receptor,106 ± 2.03%
same,EC50,κ-opioid receptor,829 ± 100 nM
"O=C([C@@H]1C[C@]23CCN(CC4CC4)[C@H](Cc4ccc(O)cc42)[C@]3(O)C1)N1CCCCC1 [Compound 56, ((2R,3aS,4R,9bS)-12-(cyclopropylmethyl)-3a,8-dihydroxy-1,2,3,3a,4,5-hexahydro-4,9b-(epiminoethano)cyclopenta-[a]naphthalen-2-yl)(piperidin-1-yl)methanone]",Emax,μ-opioid receptor,16 ± 1.53%
same,EC50,μ-opioid receptor,0.0104 ± 0.00203 µM
same,Emax,κ-opioid receptor,97.8 ± 3.67%
same,EC50,κ-opioid receptor,20.8 ± 1.79 nM
"O=C([C@H]1C[C@]23CCN(CC4CC4)[C@H](Cc4ccc(O)cc42)[C@]3(O)C1)N1CCCCC1 [Compound 57, ((2S,3aS,4R,9bS)-12-(cyclopropylmethyl)-3a,8-dihydroxy-1,2,3,3a,4,5-hexahydro-4,9b-(epiminoethano)cyclopenta-[a]naphthalen-2-yl)(piperidin-1-yl)methanone]",Emax,μ-opioid receptor,37.7 ± 6.69%
same,EC50,μ-opioid receptor,0.00279 ± 0.00076 µM
same,Emax,κ-opioid receptor,90.3 ± 2.6%
same,EC50,κ-opioid receptor,5.88 ± 0.79 nM
"O=C([C@@H]1C[C@]23CCN(CC4CC4)[C@H](Cc4ccc(O)cc42)[C@]3(O)C1)N1CCOCC1 [Compound 58, ((2R,3aS,4R,9bS)-12-(cyclopropylmethyl)-3a,8-dihydroxy-1,2,3,3a,4,5-hexahydro-4,9b-(epiminoethano)cyclopenta-[a]naphthalen-2-yl)(morpholino)-methanone]",Emax,μ-opioid receptor,21.7 ± 5.49%
same,EC50,μ-opioid receptor,0.0143 ± 0.00543 µM
same,Emax,κ-opioid receptor,93.7 ± 4.48%
same,EC50,κ-opioid receptor,24.3 ± 5.67 nM
"CCN(CC)C(=O)[C@@H]1C[C@]23CCN(CC4CC4)[C@H](Cc4ccc(O)cc42)[C@]3(O)C1 [Compound 59, (2R,3aS,4R,9bS)-12-(cyclopropylmethyl)-N,N-diethyl-3a,8-dihydroxy-1,2,3,3a,4,5-hexahydro-4,9b-(epiminoethano)cyclo-penta[a]naphthalene-2-carboxamide]",Emax,μ-opioid receptor,25.7 ± 0.33%
same,EC50,μ-opioid receptor,0.0226 ± 0.00631 µM
same,Emax,κ-opioid receptor,105 ± 4.33%
same,EC50,κ-opioid receptor,26 ± 2.61 nM
"NC(=O)[C@@H]1C[C@]23CCN(CC(F)(F)F)[C@H](Cc4ccc(O)cc42)[C@]3(O)C1 [Compound 75, (2R,3aS,4R,9bS)-3a,8-dihydroxy-12-(2,2,2-tritluoroethyl)-1,2,3,3a,4,5-hexahydro-4,9b-(epiminoethano)cyclo-penta[a]naphthalene-2-carboxamide]",Emax,μ-opioid receptor,2%
same,EC50,μ-opioid receptor; bound given in μM,> 20 µM
same,Emax,κ-opioid receptor,69 ± 6.03%
same,EC50,κ-opioid receptor,1260 ± 74.6 nM
"O=C(NCCc1ccccc1)[C@@H]1C[C@]23CCN(CC4CC4)[C@H](Cc4ccc(O)cc42)[C@]3(O)C1 [Compound 50, (2R,3aS,4R,9bS)-12-(cyclopropylmethyl)-3a,8-dihydroxy-N-phenethyl-1,2,3,3a,4,5-hexahydro-4,9b-(epiminoethano)-cyclopenta[a]naphthalene-2-carboxamide]",Emax,μ-opioid receptor,23.3 ± 1.86%
same,EC50,μ-opioid receptor,0.0069 ± 0.00054 µM
same,Emax,κ-opioid receptor,107.7 ± 0.88%
same,EC50,κ-opioid receptor,1.95 ± 0.33 nM
